In article PMC2784226, “Degradation of Host Sphingomyelin Is Essential for Leishmania Virulence” (PLoS Pathogens, 2009):

Target: T1, ScISC1 (Saccharomyces cerevisiae, UniProt P40015)
T1 construct: gene ISC1; full-length ORF expressed in L. major iscl- null mutant; whole cell lysate
Experiment: TLC of NBD-ceramide, intact parasites and whole cell lysate
Format: cell-based
Conditions: labelled compound; expressed in iscl- null mutant

T1 sequence (P40015 whole entry): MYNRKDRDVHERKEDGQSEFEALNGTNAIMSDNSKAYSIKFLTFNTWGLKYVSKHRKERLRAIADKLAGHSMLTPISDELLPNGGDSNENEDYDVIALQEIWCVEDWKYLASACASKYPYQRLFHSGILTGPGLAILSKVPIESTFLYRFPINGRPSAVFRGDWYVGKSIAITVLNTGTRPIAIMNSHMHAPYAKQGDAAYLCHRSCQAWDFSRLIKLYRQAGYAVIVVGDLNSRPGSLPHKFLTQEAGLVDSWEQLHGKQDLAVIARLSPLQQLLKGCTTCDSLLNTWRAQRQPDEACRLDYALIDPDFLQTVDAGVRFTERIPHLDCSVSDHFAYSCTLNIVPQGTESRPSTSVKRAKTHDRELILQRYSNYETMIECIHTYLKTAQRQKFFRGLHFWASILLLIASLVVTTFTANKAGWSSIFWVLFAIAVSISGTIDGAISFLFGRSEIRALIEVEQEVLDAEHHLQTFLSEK

`CCCCCCCCCCCCC/C=C/[C@@H](O)[C@H](COP(=O)([O-])OCC[N+](C)(C)C)NC(=O)CCCCCNc1ccc([N+](=O)[O-])c2nonc12` [NBD C6-sphingomyelin, N-[6-[(7-nitro-2-1,3-benzoxadiazol-4-yl)amino]hexanoyl]-sphingosine-1-phosphocholine] was tested, and the “TLC of NBD-ceramide, intact parasites and whole cell lysate” value was “expression of ScISC1 restored the ability to degrade sphingomyelin in iscl^−”.
